Measured values as given in ChEMBL document CHEMBL5331071, “Structure-activity relationship study of amidobenzimidazole derivatives as stimulator of interferon genes (STING) agonists” (Eur J Med Chem, 2023).

Key:
[1] = Cytotoxicity against human THP1-Dual KO-STING cells assessed as inhibition of cell growth by MTS assay; type: functional, cell-based
[2] = biological target: T1, Stimulator of interferon genes protein (Homo sapiens, UniProt Q86WV6); experiment: Agonist activity at STING in human […] KO-STING cells incubated for 20 hrs by Quanti-luc reagent based assay; type: cell-based, THP1-Dual KO-STING
T1 sequence (Q86WV6 whole entry): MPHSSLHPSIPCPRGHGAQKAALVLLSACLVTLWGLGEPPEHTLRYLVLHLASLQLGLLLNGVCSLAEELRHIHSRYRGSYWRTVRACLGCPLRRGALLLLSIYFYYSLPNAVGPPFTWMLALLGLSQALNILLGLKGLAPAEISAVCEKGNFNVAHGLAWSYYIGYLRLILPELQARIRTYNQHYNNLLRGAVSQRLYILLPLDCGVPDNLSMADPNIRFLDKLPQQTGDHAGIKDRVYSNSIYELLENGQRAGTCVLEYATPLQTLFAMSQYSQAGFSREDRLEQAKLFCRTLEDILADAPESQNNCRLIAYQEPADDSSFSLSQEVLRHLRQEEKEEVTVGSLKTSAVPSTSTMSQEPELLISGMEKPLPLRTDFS

[3] = biological target: T1, Stimulator of interferon genes protein; experiment: Agonist activity at STING in human THP1-Dual cells incubated for 20 hrs by Quanti-luc reagent based assay; type: cell-based
THP1-Dual = experiment: Cytotoxicity against human THP1-Dual habouring STING assessed as inhibition of cell growth by MTS assay; type: functional, cell-based

SMILES | IC50 [1] | EC50 [2] | EC50 [3] | IC50 (THP1-Dual)
CCn1nc(C)cc1C(=O)Nc1nc2cc(C(N)=O)cc(OC)c2n1Cc1cn(Cc2ccc3ccccc3c2)nn1 | > 100 µM | > 100 µM | > 100 µM | > 100 µM
CCn1nc(C)cc1C(=O)Nc1nc2cc(C(N)=O)cc(OC)c2n1NCCCNC(=O)NCc1ccccc1 | > 100 µM | > 100 µM | 8.52 µM | > 100 µM
CCn1nc(C)cc1C(=O)Nc1nc2cc(C(N)=O)cc(OC)c2n1CCCNC(=O)c1ccc2ccccc2c1 | > 100 µM | > 100 µM | 0.93 µM | 10.8 µM
CCn1nc(C)cc1C(=O)Nc1nc2cc(C(N)=O)cc(OC)c2n1C/C=C/CNC(=O)c1cnc2ccccc2c1 | > 100 µM | > 100 µM | > 100 µM | > 100 µM
CCn1nc(C)cc1C(=O)Nc1nc2cc(C(N)=O)cc(OC)c2n1C/C=C/CNC(=O)c1ccccc1 | > 100 µM | > 100 µM | 47.1 µM | > 100 µM
CCn1nc(C)cc1C(=O)Nc1nc2cc(C(N)=O)cc(OC)c2n1C/C=C/CNC1CCN(C)CC1 | > 100 µM | > 100 µM | > 100 µM | > 100 µM
CCn1nc(C)cc1C(=O)Nc1nc2cc(C(N)=O)cc(OC)c2n1C/C=C/CNC(=O)C1CCCC1 | > 100 µM | > 100 µM | > 100 µM | > 100 µM
CCn1nc(C)cc1C(=O)Nc1nc2cc(C(N)=O)cc(OC)c2n1C/C=C/CNC1CCOCC1 | > 100 µM | > 100 µM | > 100 µM | > 100 µM
CCn1nc(C)cc1C(=O)Nc1nc2cc(C(N)=O)cc(OC)c2n1C/C=C/CNC(=O)c1cc(F)nc(F)c1 | > 100 µM | > 100 µM | > 100 µM | > 100 µM
CCn1nc(C)cc1C(=O)Nc1nc2cc(C(N)=O)cc(OC)c2n1CCCN1CCC(C(=O)Nc2ccc3ccccc3c2)CC1 | > 100 µM | > 100 µM | > 100 µM | > 100 µM
CCn1nc(C)cc1C(=O)Nc1nc2cc(C(N)=O)cc(OCC3CC3)c2n1NCCCC(=O)NCc1ccc(F)cc1 | > 100 µM | > 100 µM | 1.42 µM | > 100 µM
CCn1nc(C)cc1C(=O)Nc1nc2cc(C(N)=O)cc(OC)c2n1C/C=C/CNC(=O)c1ccc2ccccc2c1 | > 100 µM | > 100 µM | > 100 µM | > 100 µM
CCn1nc(C)cc1C(=O)Nc1nc2cc(C(N)=O)cc(OC)c2n1C/C=C/Cn1c(=O)[nH]c2cc(C(N)=O)ccc21 | > 100 µM | > 100 µM | > 100 µM | > 100 µM
CCn1nc(C)cc1C(=O)Nc1nc2cc(C(N)=O)cc(OC)c2n1Cc1cn(CCc2ccccc2)nn1 | > 100 µM | > 100 µM | > 100 µM | > 100 µM
CCn1nc(C)cc1C(=O)Nc1nc2cc(C(N)=O)cc(OCCCN3CCOCC3)c2n1NCCCNC(=O)c1ccc2ccccc2c1 | 28.1 µM | > 100 µM | 2.19 µM | 18.6 µM
CCn1nc(C)cc1C(=O)Nc1nc2cc(C(N)=O)cc(OC)c2n1NCCCNC(=O)NCc1ccc2ccccc2c1 | > 100 µM | > 100 µM | > 100 µM | > 100 µM
CCn1nc(C)cc1C(=O)Nc1nc2cc(C(N)=O)cc(OC)c2n1CCCC(=O)NCc1ccc2ccccc2c1 | > 100 µM | > 100 µM | 7.04 µM | > 100 µM
CCn1nc(C)cc1C(=O)Nc1nc2cc(C(N)=O)cc(OC)c2n1CCCC(=O)NCc1ccccc1 | > 100 µM | > 100 µM | 4.13 µM | > 100 µM
CCn1nc(C)cc1C(=O)Nc1nc2cc(C(N)=O)cc(OC)c2n1CCCN1CCN(Cc2ccc3ccccc3c2)C(=O)C1 | > 100 µM | > 100 µM | > 100 µM | > 100 µM
CCn1nc(C)cc1C(=O)Nc1nc2cc(C(N)=O)cc(OC)c2n1NCCCC(=O)NCc1ccccc1F | > 100 µM | > 100 µM | 4.17 µM | > 100 µM
CCn1nc(C)cc1C(=O)Nc1nc2cc(C(N)=O)cc(OC)c2n1C/C=C/CNC(=O)Nc1ccc2ccccc2c1 | > 100 µM | > 100 µM | > 100 µM | > 100 µM
CCn1nc(C)cc1C(=O)Nc1nc2cc(C(N)=O)cc(OC)c2n1NCCCC(=O)NCc1ccc(Oc2ccccc2)cc1 | > 100 µM | > 100 µM | 28.8 µM | > 100 µM
CCn1nc(C)cc1C(=O)Nc1nc2cc(C(N)=O)cc(OC)c2n1NCCCC(=O)N(C)Cc1ccccc1 | > 100 µM | > 100 µM | 11.2 µM | > 100 µM
CCn1nc(C)cc1C(=O)Nc1nc2cc(C(N)=O)cc(OC)c2n1C/C=C/CNC(=O)Cc1cnccn1 | > 100 µM | > 100 µM | > 100 µM | > 100 µM
CCn1nc(C)cc1C(=O)Nc1nc2cc(C(N)=O)cc(OC)c2n1CCCN1CCN(C(=O)c2ccc3ccccc3c2)CC1 | > 100 µM | > 100 µM | > 100 µM | > 100 µM

SMILES | IC50 [1] | EC50 [2] | EC50 [3] | IC50 (THP1-Dual)
CCn1nc(C)cc1C(=O)Nc1nc2cc(C(N)=O)cc(OC)c2n1C/C=C/CNC(=O)c1cc(C(F)(F)F)cc(C(F)(F)F)c1 | > 100 µM | > 100 µM | > 100 µM | > 100 µM
CCn1nc(C)cc1C(=O)Nc1nc2cc(C(N)=O)cc(OC)c2n1C/C=C/CNC(=O)c1cnc(C(F)(F)F)cn1 | > 100 µM | > 100 µM | > 100 µM | > 100 µM
CCn1nc(C)cc1C(=O)Nc1nc2cc(C(N)=O)cc(OC)c2n1NCCCC(=O)NCc1cc(F)cc(F)c1 | > 100 µM | > 100 µM | 5.14 µM | > 100 µM
CCn1nc(C)cc1C(=O)Nc1nc2cc(C(N)=O)cc(OCC3COC3)c2n1NCCCNC(=O)c1ccc2ccccc2c1 | 18.2 µM | > 100 µM | 39.4 µM | 11.3 µM
CCn1nc(C)cc1C(=O)Nc1nc2cc(C(N)=O)cc(OC)c2n1C/C=C/CNC(=O)C1CCCCC1 | > 100 µM | > 100 µM | > 100 µM | > 100 µM
CCn1nc(C)cc1C(=O)Nc1nc2cc(C(N)=O)cc(OC)c2n1C/C=C/CNC(=O)Cc1ccccc1 | > 100 µM | > 100 µM | > 100 µM | > 100 µM
CCn1nc(C)cc1C(=O)Nc1nc2cc(C(N)=O)cc(OC)c2n1C/C=C/CNC(=O)c1cnccn1 | > 100 µM | > 100 µM | > 100 µM | > 100 µM
CCn1nc(C)cc1C(=O)Nc1nc2cc(C(N)=O)cc(OC)c2n1CCCC(=O)Nc1ccc2ccccc2c1 | > 100 µM | > 100 µM | 9.83 µM | > 100 µM
CCn1nc(C)cc1C(=O)Nc1nc2cc(C(N)=O)cc(OC)c2n1C/C=C/CNC1CCC(N(C)C)CC1 (stereo unspecified) | > 100 µM | > 100 µM | > 100 µM | > 100 µM
CCn1nc(C)cc1C(=O)Nc1nc2cc(C(N)=O)cc(OC)c2n1CCOCCNC(=O)c1ccc(OC)cc1 | > 100 µM | > 100 µM | > 100 µM | > 100 µM
CCn1nc(C)cc1C(=O)Nc1nc2cc(C(N)=O)cc(OCC3CC3)c2n1NCCCNC(=O)c1ccc2ccccc2c1 | 12.1 µM | > 100 µM | 1.12 µM | > 100 µM
CCn1nc(C)cc1C(=O)Nc1nc2cc(C(N)=O)cc(OC)c2n1CCCNC(=O)c1ccccc1 | > 100 µM | > 100 µM | > 100 µM | > 100 µM
CCn1nc(C)cc1C(=O)Nc1nc2cc(C(N)=O)cc(OC)c2n1C/C=C/CNC(=O)c1ccc2ncccc2c1 | > 100 µM | > 100 µM | > 100 µM | > 100 µM
CCn1nc(C)cc1C(=O)Nc1nc2cc(C(N)=O)cc(OC)c2n1CCCN1CCC(C(=O)Nc2ccccc2)CC1 | > 100 µM | > 100 µM | > 100 µM | > 100 µM
CCn1nc(C)cc1C(=O)Nc1nc2cc(C(N)=O)cc(OC)c2n1CCCC(=O)Nc1ccccc1 | > 100 µM | > 100 µM | 9.81 µM | > 100 µM
CCn1nc(C)cc1C(=O)Nc1nc2cc(C(N)=O)cc(OC)c2n1CCCNC(=O)c1ccc(-c2ccccc2)cc1 | > 100 µM | > 100 µM | > 100 µM | > 100 µM
CCn1nc(C)cc1C(=O)Nc1nc2cc(C(N)=O)cc(OC)c2n1NCCCC(=O)NCc1ccc(Cl)cc1Br | > 100 µM | > 100 µM | 96.3 µM | > 100 µM
CCn1nc(C)cc1C(=O)Nc1nc2cc(C(N)=O)cc(OC)c2n1C/C=C/CNC(=O)c1cnc(OC)cn1 | > 100 µM | > 100 µM | > 100 µM | > 100 µM
CCn1nc(C)cc1C(=O)Nc1nc2cc(C(N)=O)cc(OC)c2n1C/C=C/Cn1c(C(F)(F)F)nc2cc(C(N)=O)ccc21 | > 100 µM | > 100 µM | > 100 µM | > 100 µM
CCn1nc(C)cc1C(=O)Nc1nc2cc(C(N)=O)cc(OC)c2n1C/C=C/CNc1ccc(C(N)=O)cc1[N+](=O)[O-] | > 100 µM | > 100 µM | > 100 µM | > 100 µM
CCn1nc(C)cc1C(=O)Nc1nc2cc(C(N)=O)cc(OC)c2n1NCCCC(=O)NCc1ccc(-c2ccccc2)cc1 | > 100 µM | > 100 µM | 40.9 µM | > 100 µM
CCn1nc(C)cc1C(=O)Nc1nc2cc(C(N)=O)cc(OC)c2n1NCCCC(=O)NCc1ccc(F)cc1F | > 100 µM | > 100 µM | 3.57 µM | > 100 µM
CCn1nc(C)cc1C(=O)Nc1nc2cc(C(N)=O)cc(OCCCOC)c2n1NCCCC(=O)NCc1ccc(F)cc1 | > 100 µM | > 100 µM | 2.96 µM | > 100 µM
CCn1nc(C)cc1C(=O)Nc1nc2cc(C(N)=O)cc(OC)c2n1NCCCC(=O)NCc1ccc(OC)cc1 | > 100 µM | > 100 µM | 4.1 µM | > 100 µM
